Results: the RepoRT retention time repository (doi:10.1021/ac300829f)

assay: RP, Thermo Scientific Hypersil GOLD, 150 × 2.1 mm, 1.9 µm, 0.5 mL/min, estimated dead time 0.66 min; A: water + 0.1% formic acid, pH 3; B: acetonitrile + 0.1% formic acid, pH 3; gradient (min/%B) 0/0 2/0 13/100 15.5/100 19/0; conditions: stereoisomer not certain

SMILES	LC retention time [min]
CC(=O)NCCC(=O)NC(Cc1cnc[nH]1)C(=O)O (configuration not stated) [N-acetylcarnosine]	1.1
O=C(O)C1CCCN1 (configuration not stated) [proline]	1.1
CCCCCC=CC(=O)OC(CC(=O)[O-])C[N+](C)(C)C (configuration not stated) [octenoylcarnitine]	7.3
O=C(O)Cc1c[nH]c2ccc(O)cc12 [5-hydroxyindoleacetic acid]	5.7
NC(N)=NCCCC(N)C(=O)O (configuration not stated) [arginine]	0.9
O=C(O)CC(=O)O [malonic acid]	1.04
O=C(O)CNC(=O)C=Cc1ccccc1 [cinnamoylglycine]	7
NC(Cc1ccc(O)cc1)C(=O)O (configuration not stated) [tyrosine]	1.1
CCCC(=O)OC(CC(=O)[O-])C[N+](C)(C)C (configuration not stated) [butyrylcarnitine]	5
CCC(CCCCCC(=O)O)C(=O)O (configuration not stated) [2-ethylsuberic acid]	6.7
NCCS(=O)(=O)O [taurine]	0.9
Nc1ccc(O)cc1 [4-aminophenol]	1.1
Nc1ncnc2c1ncn2C1OC2COP(=O)(O)OC2C1O (configuration not stated) [cyclic AMP]	1
O=C(O)c1cccnc1 [nicotinic acid]	1.1
CC(=O)NCCCNCCCCN [N1-acetylspermidine]	0.9
CCCCCCCCC=CCCCCCCCC(=O)OCC(O)COP(=O)([O-])OCC[N+](C)(C)C (configuration not stated) [1-oleoylglycerophosphocholine LysoPC(18:1)]	12
O=c1cc[nH]c(=O)[nH]1 [uracil]	1.2
CNc1nc2c(ncn2C2OC(CO)C(O)C2O)c(=O)[nH]1 (configuration not stated) [N2-methylguanosine]	4.4
CC(=O)NC(CC(=O)O)C(=O)O (configuration not stated) [N-acetylaspartic acid]	1.1
Cc1cnc(=O)[nH]c1N [5-methylcytosine]	1
CCCCCCCCC(=O)OC(CC(=O)[O-])C[N+](C)(C)C (configuration not stated) [nonanoylcarnitine]	8.1
NC(=O)CCC(N)C(=O)O (configuration not stated) [glutamine]	0.9
CN1CCCC1c1cccnc1 (configuration not stated) [nicotine]	1.1
OCC1OC(O)C(O)C(O)C1O (configuration not stated) [hexose]	0.9

SMILES	LC retention time [min]
OCC1NCC(O)C(O)C1OC1OC(CO)C(O)C(O)C1O (configuration not stated) [glucopyranosylmoranoline]	4.5
NCCCCNCCCN [spermidine]	0.8
Cn1c(=O)[nH]c2[nH]c(=O)n(C)c2c1=O [1,7-dimethyluric acid]	5
C[N+]1(C)CCCC1C(=O)[O-] (configuration not stated) [stachydrine (proline betaine)]	1
CCCCCCCCCC(=O)OC(CC(=O)[O-])C[N+](C)(C)C (configuration not stated) [decanoylcarnitine]	9
NC(Cc1ccccc1)C(=O)O (configuration not stated) [phenylalanine]	4.4
COC(=O)CCCCC(=O)O [mono-methyl-adipate]	6.3
OCc1ccccc1O [2-hydroxybenzyl alcohol]	5.8
CN1C(=O)C(O)CC1c1cccnc1 (stereo not drawn) [trans-3-hydroxycotinine]	1.1
O=C(O)CNC(=O)c1ccccc1 [hippuric acid]	5.8
CC(C)(O)CC(=O)O [3-hydroxy-3-methylbutyric acid (3-hydroxyisovaleric acid)]	4.2
CCC(C)(O)C(=O)O (configuration not stated) [2-hydroxy-2-methylbutyric acid (2-hydroxyisovaleric acid)]	4.6
Cn1c(=O)c2c(ncn2C)n(C)c1=O [caffeine]	5.6
CCOC(=O)c1ccccc1C(=O)O [monoethyl phthalate]	7.6
Cc1cc2nc3c(=O)[nH]c(=O)nc-3n(CC(O)C(O)C(O)CO)c2cc1C (configuration not stated) [riboflavin]	5.7
CC=C(C)C(=O)NCC(=O)O [tiglylglycine]	5.2
CC12CCC(=O)C=C1CCC1C2CCC2(C)C(C(=O)CO)CCC12 (configuration not stated) [deoxycorticosterone]	9.6
Cc1ccc(C(=O)NCC(=O)O)cc1 [4-methylhippuric acid (para-methylhippuric acid)]	6.7
C[N+](C)(C)CC(CC(=O)[O-])OC(=O)CCCCC(=O)O (configuration not stated) [adipoylcarnitine]	5.3
Cc1ncc(CO)c(C(=O)O)c1O [4-pyridoxic acid]	5.6
CC(C)(CCC(=O)O)C(=O)O [2,2-dimethylglutaricacid]	6
O=C(O)CNC(=O)c1cccc(O)c1 [m-hydroxyhippuric acid]	6.1
O=C(O)CNC(=O)C1=CCCCC1 [tetrahydrohippuric acid]	6.3
NCCc1c[nH]c2ccccc12 [tryptamine]	5.7

SMILES	LC retention time [min]
CC(=O)Nc1ccc(O)cc1 [acetaminophen]	4.9
CC(=O)NC(C)C(=O)O (configuration not stated) [acetylalanine]	1.8
NC(CCCC(=O)O)C(=O)O (configuration not stated) [2-aminoadipic acid]	1.1
CSCCC(N)C(=O)O (configuration not stated) [methionine]	1.1
O=C(O)c1cc(=O)c2cccc(O)c2[nH]1 [xanthurenic acid]	5.2
CN(CC(=O)O)C(=N)N [creatine]	1
O=C(O)CC(Nc1ncnc2c1ncn2C1OC(CO)C(O)C1O)C(=O)O (configuration not stated) [succinyladenosine]	4.8
NC(=O)CCC(NC(=O)Cc1c[nH]c2ccccc12)C(=O)O (configuration not stated) [indoleacetyl glutamine]	6.1
NCc1[nH]cc(CCC(=O)O)c1CC(=O)O [porphobilinogen]	4.7
O=CCC(O)C(O)CO (configuration not stated) [deoxyribose]	0.9
O=C(O)CNC(=O)c1ccc(O)cc1 [p-hydroxyhippuric acid]	4.9
NC(CO)C(=O)O (configuration not stated) [serine]	0.9
CC(=O)NCCc1c[nH]c2ccc(O)cc12 [N-acetyl-5-hydroxytryptamine (N-acetyl-serotonin)]	5.8
CC(CCC(=O)O)C1CCC2C3C(O)CC4CC(O)CCC4(C)C3CC(O)C12C (configuration not stated) [cholic acid]	9.2
CC(C)C(=O)NCC(=O)O [N-isobutyrylglycine]	4.1
Nc1nc2nc[nH]c2c(=O)[nH]1 [guanine]	1.1
CN(C)c1nc2c(ncn2C2OC(CO)C(O)C2O)c(=O)[nH]1 (configuration not stated) [N,N-dimethylguanosine]	4.8
CC12CCC(=O)C=C1CCC1C2CCC2(C)C(OC3OC(C(=O)O)C(O)C(O)C3O)CCC12 (configuration not stated) [testosterone glucuronide]	7.9
C[N+](C)(C)[O-] [trimethylamine oxide]	0.9
CC(C)CC(=O)C(=O)O [4-methyl-2-oxovaleric acid (ketoleucine)]	5.7
O=C(O)CCCCCCCCC(=O)O [sebacic acid]	7.6
O=c1[nH]cnc2nc[nH]c12 [hypoxanthine]	1.1
NC(=O)c1cccnc1 [nicotinamide]	1.1
CC(=O)NCCCCN [N-acetylputrescine]	1.1
